This passage reports IC50 and melting point results from patent US20120095036A1, “NOVEL SUBSTITUTED INDAZOLE AND AZA-INDAZOLE DERIVATIVES AS GAMMA SECRETASE MODULATORS” (priority 2009, published 2012).

The subject of data set [1] is Aβ42. Briefly: Method 1: Aβ42 sandwich ELISA on media of SKNBE2 cells carrying APP 695 wild type (γ-secretase-modulating activity). Particulars: Homo sapiens, SKNBE2 cells APP 695 wild type, 18 hours. The data set is classed as cell-based. The method, then: (§1) Screening was carried out using SKNBE2 cells carrying the APP 695—wild type, grown in Dulbecco's Modified Eagle's Medium/Nutrient mixture F-12 (DMEM/NUT-mix F-12) (HAM) provided by Gibco (cat no. 31330-38) containing 5% Serum/Fe supplemented with 1% non-essential amino acids. Cells were grown to near confluency.
(§2) The screening was performed using the assay as described in Citron et al (1997) Nature Medicine 3: 67. Briefly, cells were plated in a 96-well plate at about 10^5 cells/ml one day prior to addition of compounds. Compounds were added to the cells in Ultraculture (Lonza, BE12-725F) supplemented with 1% glutamine (Invitrogen, 25030-024) for 18 hours. The media were assayed by two sandwich ELISAs, for Aβ42 and Aβtotal. Toxicity of the compounds was assayed by WST-1 cell proliferation reagent (Roche, 1 644 807) according to the manufacturer's protocol.
To quantify the amount of Aβ42 in the cell supernatant, commercially available Enzyme-Linked-Immunosorbent-Assay (ELISA) kits were used (Innotest® β-Amyloid(1-42), Innogenetics N.V., Ghent, Belgium). The Aβ42 ELISA was performed essentially according to the manufacturer's protocol. Briefly, the standards (dilutions of synthetic A131-42) were prepared in polypropylene Eppendorf with final concentrations of 8000 down to […] (½ dilution step). Samples, standards and blanks (100 μl) were added to the anti-Aβ42-coated plate supplied with the kit (the capture antibody selectively recognizes the C-terminal end of the antigen). The plate was allowed to incubate 3 h at 25° C. in order to allow formation of the antibody-amyloid complex. Following this incubation and subsequent wash steps a selective anti-A13-antibody conjugate (biotinylated 3D6) was added and incubated for a minimum of 1 hour in order to allow formation of the antibody-Amyloid-antibody-complex. After incubation and appropriate wash steps, a Streptavidine-Peroxidase-Conjugate was added, followed 30 minutes later by an addition of 3,3′,5,5′-tetramethylbenzidine (TMB)/peroxide mixture, resulting in the conversion of the substrate into a coloured product. This reaction was stopped by the addition of sulfuric acid (0.9 N) and the colour intensity was measured by means of photometry with an ELISA-reader with a 450 nm filter.
(§3) To obtain the values reported in Table 3a, the sigmoidal dose response curves were analysed by computerised curve-fitting, with percent of inhibition plotted against compound concentration. A 4-parameter equation (model 205) in XLfit was used to determine the IC50. The top and the bottom of the curve were fixed to 100 and 0, respectively, and the hill slope was fixed to 1. The IC50 represents the concentration of a compound that is required for inhibiting a biological effect by 50% (Here, it is the concentration where Aβ peptide level is reduced by 50%).
In general terms: In an ELISA, binding on a coated surface is turned into a signal by an enzyme label.

Data set [2] deals with Aβtotal. In words: Method 1: Aβtotal sandwich ELISA on media of SKNBE2 cells carrying APP 695 wild type. In kind it is cell-based. Particulars: Homo sapiens, SKNBE2 cells APP 695 wild type, 18 hours. The method, then:
as §1, §2
To quantify the amount of Aβtotal in the cell supernatant, samples and standards were added to a 6E10-coated plate. The plate was allowed to incubate overnight at 4° C. in order to allow formation of the antibody-amyloid complex. Following this incubation and subsequent wash steps a selective anti-AB-antibody conjugate (biotinylated 4G8) was added and incubated for a minimum of 1 hour in order to allow formation of the antibody-Amyloid-antibody-complex. After incubation and appropriate wash steps, a Streptavidine-Peroxidase-Conjugate was added, followed 30 minutes later by an addition of Quanta Blu fluorogenic peroxidase substrate according to the manufacturer's instructions (Pierce Corp., Rockford, Il).
as §3

Data set [3] relates to Aβ42. In words: Method 2: Aβ42 Alphalisa on supernatant of SKNBE2 cells carrying APP 695 wild type. The data set is classed as cell-based. The conditions noted are these: Homo sapiens, SKNBE2 cells APP 695 wild type, overnight. The method, then:
(§4) Screening was carried out using SKNBE2 cells carrying the APP 695—wild type, grown in Dulbecco's Modified Eagle's Medium/Nutrient mixture F-12 (DMEM/NUT-mix F-12) (HAM) provided by Invitrogen (cat no. 10371-029) containing 5% Serum/Fe supplemented with 1% non-essential amino acids, 1-glutamine 2 mM, Hepes 15 mM, penicillin 50 U/ml (units/ml) en streptomycin 50 μg/ml. Cells were grown to near confluency.
(§5) The screening was performed using a modification of the assay as described in Citron et al (1997) Nature Medicine 3: 67. Briefly, cells were plated in a 384-well plate at 10^4 cells/well in Ultraculture (Lonza, BE12-725F) supplemented with 1% glutamine (Invitrogen, 25030-024), 1% non-essential amino acid (NEAA), penicillin 50 U/ml en streptomycin 50 μg/ml in the presence of test compound at different test concentrations. The cell/compound mixture was incubated overnight at 37° C., 5% CO2, The next day the media were assayed by two sandwich immuno-assays, for Aβ42 and Aβtotal.
(§6) Aβtotal and Aβ42 concentrations were quantified in the cell supernatant using the Aphalisa technology (Perkin Elmer). Alphalisa is a sandwich assay using biotinylated antibody attached to streptavidin coated donorbeads and antibody conjugated to acceptor beads. In the presence of antigen, the beads come into close proximity. The excitation of the donor beads provokes the release of singlet oxygen molecules that trigger a cascade of energy transfer in the acceptor beads, resulting in light emission. To quantify the amount of Aβ42 in the cell supernatant, monoclonal antibody specific to the C-terminus of Aβ42 (JRF/cAβ42/26) was coupled to the receptor beads and biotinylated antibody specific to the N-terminus of AB (JRF/AβN/25) was used to react with the donor beads. To quantify the amount of Aβtotal in the cell supernatant, monoclonal antibody specific to the N-terminus of AB (JRF/AβN/25) was coupled to the receptor beads and biotinylated antibody specific to the mid region of Aβ (biotinylated 4G8) was used to react with the donor beads.
(§7) To obtain the values reported in Table 3b, the data were calculated as percentage of the maximum amount of amyloid Beta 42 measured in the absence of the test compound. The sigmoidal dose response curves were analyzed using non-linear regression analysis with percentage of the control plotted against the log concentration of the compound. A 4-parameter equation was used to determine the IC50.
(In Alpha technology, singlet oxygen from a donor bead excites a nearby acceptor bead.)

The subject of data set [4] is Aβtotal. In words: Method 2: Aβtotal Alphalisa on supernatant of SKNBE2 cells carrying APP 695 wild type. In kind it is cell-based. Particulars: Homo sapiens, SKNBE2 cells APP 695 wild type, overnight. The method, then: as §4, §5, §6, §7

Some results are limits rather than exact numbers.

Consider `COc1cccc(-n2nc3c(Nc4ccc(-c5cnn(C)c5)c(F)c4)cccc3c2C)c1` [Compound 7, N-[3-fluoro-4-(1-methyl-1H-pyrazol-4-yl)phenyl]-2-(3-methoxyphenyl)-3-methyl-2H-indazol-7-amine], for which the melting point (commonly the temperature of the solid-liquid transition) stood at 239.1 °C. Further, the IC50 (in general, the concentration that gives 50% inhibition) with Aβ42 [1] stood at 229 nM. Besides, the half-inhibitory concentration (IC50) in the data set with Aβtotal [2] was greater than 3000 nM. This molecule had an IC50 in the data set with Aβ42 [3] of 55 nM. The molecule also came in with an IC50 with Aβtotal [4] greater than 10000 nM.

In turn, `Cc1ncc(-c2ccc(Nc3cccc4c(CN)n(-c5ccc(F)cc5)nc34)cc2)o1` [Compound 8, 2-(4-fluorophenyl)-7-[[4-(2-methyl-5-oxazolyl)phenyl]amino]-2H-indazole-3-methanamine] came in with a melting point of 137 °C. Also, inhibition in the data set with Aβ42 [1] was half-maximal at 180 nM (IC50). In the data set with Aβtotal [2], this molecule registered an IC50 greater than 10000 nM. The midpoint of inhibition in the data set with Aβ42 [3], the IC50, lay at 177 nM. This molecule also came in with an IC50 with Aβtotal [4] greater than 10000 nM.

The molecule `Cc1ncn(-c2ccc(Nc3cccc4c(C)n(CCCC(F)(F)F)nc34)cc2F)n1` [Compound 22, N-[3-fluoro-4-(3-methyl-1H-1,2,4-triazol-1-yl)phenyl]-3-methyl-2-(4,4,4-trifluorobutyl)-2H-indazol-7-amine] gave a melting point of 135.6 °C. Also, the IC50 in the data set on Aβ42 [1] is greater than 3000 nM. The molecule also had an IC50 in the data set with Aβtotal [2] greater than 3000 nM. In the data set with Aβ42 [3], this molecule came in with an IC50 greater than 3000 nM. In the data set on Aβtotal [4], this molecule displayed an IC50 greater than 3000 nM.

For the molecule `Cc1ncn(-c2ccc(Nc3cccc4c(C)n(-c5ccc(F)cc5F)nc34)cc2F)n1` [Compound 23, 2-(2,4-difluorophenyl)-N-[3-fluoro-4-(3-methyl-1H-1,2,4-triazol-1-yl)phenyl]-3-methyl-2H-indazol-7-amine], the melting point turned out to be 146.9 °C. The IC50 in the data set with Aβ42 [1] worked out at 1040 nM. In the data set on Aβ42 [3], this molecule returned an IC50 of 724 nM. Also, the IC50 in the data set with Aβtotal [4] was greater than 10000 nM.

Take `Cc1ncc(-c2ccc(Nc3cccc4c(C#N)n(-c5ccc(F)cc5)nc34)cc2)o1` [Compound 32, 2-(4-fluorophenyl)-7-[[4-(2-methyl-5-oxazolyl)phenyl]amino]-2H-indazole-3-carbonitrile]: the melting point was determined as 237.9 °C. This molecule also showed an IC50 with Aβ42 [1] of 2130 nM. In addition, the IC50 with Aβtotal [2] is greater than 3000 nM. For the same molecule, in the data set on Aβ42 [3], the IC50 was greater than 3000 nM. The molecule further yielded an IC50 in the data set with Aβtotal [4] greater than 3000 nM.

The molecule `Cc1ncc(-c2ccc(Nc3cccc4cn(-c5ccc6c(c5)OCO6)nc34)cc2)o1` [Compound 34, 2-(1,3-benzodioxol-5-yl)-N-[4-(2-methyl-5-oxazolyl)phenyl]-2H-indazol-7-amine] came in with a melting point of 175 °C. Moreover, the IC50 with Aβ42 [1] amounted to 359 nM. Besides, the IC50 in the data set with Aβ42 [3] is 479 nM. This molecule displayed an IC50 in the data set on Aβtotal [4] greater than 10000 nM.

Molecule `COc1cccc(-n2nc3c(Nc4ccc(-c5cnc(C)o5)cc4)nccc3c2C)c1` [Compound 35, 2-(3-methoxyphenyl)-3-methyl-N-[4-(2-methyl-5-oxazolyl)phenyl]-2H-pyrazolo[3,4-c]pyridin-7-amine] yielded a melting point of 185 °C. The same molecule yielded an IC50 with Aβ42 [1] of 382 nM. In the data set on Aβtotal [2], this molecule had an IC50 greater than 3000 nM. Also, the IC50 in the data set with Aβ42 [3] was 166 nM. This molecule also gave a 50% inhibitory concentration (IC50) in the data set on Aβtotal [4] greater than 10000 nM.

Consider `COc1cc(Nc2cccc3c(C)n(-c4ccc(F)cc4)nc23)ccc1-c1cnc(C)o1` [Compound 40, 2-(4-fluorophenyl)-N-[3-methoxy-4-(2-methyl-5-oxazolyl)phenyl]-3-methyl-2H-indazol-7-amine], for which the melting point stood at 164.4 °C. In addition, in the data set on Aβ42 [1], the IC50 was determined as 186 nM. Moreover, the IC50 in the data set on Aβtotal [2] is greater than 3000 nM. In the data set with Aβ42 [3], this molecule came in with an IC50 of 32 nM. In the data set on Aβtotal [4], the IC50 stood at 5500 nM.

For the molecule `COc1cc(Nc2nc(C)cc3cn(CC(F)(F)F)nc23)ccc1-c1cnc(C)o1` [Compound 41, N-[3-methoxy-4-(2-methyl-5-oxazolyl)phenyl]-5-methyl-2-(2,2,2-trifluoroethyl)-2H-pyrazolo[3,4-c]pyridin-7-amine], the melting point stood at 213.8 °C. Moreover, in the data set with Aβ42 [3], the IC50 was greater than 3000 nM. In addition, the IC50 in the data set with Aβtotal [4] was greater than 3000 nM.

Consider `Cc1ncc(-c2ccc(Nc3cccc4cn(CC(F)(F)F)nc34)cn2)o1` [Compound 44, N-[6-(2-methyl-5-oxazolyl)-3-pyridinyl]-2-(2,2,2-trifluoroethyl)-2H-indazol-7-amine], for which the melting point came out at 153.4 °C. For the same molecule, the IC50 in the data set on Aβ42 [1] amounted to 513 nM. The IC50 in the data set with Aβtotal [2] was greater than 3000 nM. The molecule further gave an IC50 in the data set with Aβ42 [3] of 363 nM. The molecule also displayed an IC50 in the data set on Aβtotal [4] greater than 10000 nM.

With `CC(C)c1ncc(-c2ccc(Nc3cccc4cn(CC(F)(F)F)nc34)cc2)o1` [Compound 48, N-[4-[2-(1-methylethyl)-5-oxazolyl]phenyl]-2-(2,2,2-trifluoroethyl)-2H-indazol-7-amine], the melting point was 103.9 °C. Besides, the IC50 with Aβ42 [3] was greater than 3000 nM. The molecule further showed an IC50 with Aβtotal [4] greater than 3000 nM.

On to `COc1cc(Nc2cc(C)nc3cn(CC(F)(F)F)nc23)ccc1-c1cnc(C)o1` [Compound 51, N-[3-methoxy-4-(2-methyl-5-oxazolyl)phenyl]-5-methyl-2-(2,2,2-trifluoroethyl)-2H-pyrazolo[4,3-b]pyridin-7-amine], for which the melting point is 211.5 °C. The same molecule yielded an IC50 with Aβ42 [3] of 234 nM. In the data set on Aβtotal [4], this molecule gave an IC50 of 5250 nM.

For the molecule `Cc1cn(-c2ccc(Nc3cccc4cn(CC(F)(F)F)nc34)cc2F)cn1` [Compound 52, N-[3-fluoro-4-(4-methyl-1H-imidazol-1-yl)phenyl]-2-(2,2,2-trifluoroethyl)-2H-indazol-7-amine], the melting point was found to be 144.9 °C. In the data set with Aβ42 [3], this molecule came in with an IC50 of 339 nM. Besides, the IC50 in the data set with Aβtotal [4] was greater than 10000 nM.

In the case of `COc1nc(Nc2cc(C(C)C)nc3cn(CC(F)(F)F)nc23)ccc1-n1cnc(C)c1` [Compound 57, N-[6-methoxy-5-(4-methyl-1H-imidazol-1-yl)-2-pyridinyl]-5-(1-methylethyl)-2-(2,2,2-trifluoroethyl)-2H-pyrazolo[4,3-b]pyridin-7-amine], the melting point was 172.5 °C. In the data set on Aβ42 [3], this molecule had an IC50 of 107 nM. Inhibition with Aβtotal [4] was half-maximal at 1660 nM (IC50).
